Data on 2 molecules can be found in patent US4582822A, “Antibiotic A80190, pharmaceutical compositions containing same and method of use” (Eli Lilly and Company, priority 1984, dated 1986).

One assay concerns NRRL 15878. The experiment in a line: Resistance to antibiotics, sensitivity discs on seeded agar. It counts as cell-based, Actinomadura oligospora. The following applies: 15 μg. The procedure: (§1) Resistance to antibiotics was measured by padding antibiotic sensitivity discs onto the surface of seeded ISP No. 2 agar plates.
(§2) Table III lists the resistance of the strain to various antibiotics at the concentrations indicated and compares it to that of A. macra.

A further assay deals with A. macra. Described as above. As to conditions: 2 μg. It counts as cell-based, Actinomadura macra. The procedure:
as §1, §2

As for Oleandomycin, in the assay with NRRL 15878, the “Resistance to Antibiotics” value is “-”.
Regarding `CCC[C@@H]1C[C@@H](C(=O)N[C@@H]([C@H]2O[C@H](SC)[C@H](O)[C@@H](O)[C@H]2O)[C@@H](C)O)N(C)C1` [Lincomycin], the “Resistance to Antibiotics” value with A. macra was “+”.
